A short description of series [1]: Dehydration reaction (lactam formation) in a dried state at 105° C. Format: physicochemical. The note with it: 105° C. over 2-3 hours. From the text: In other words, in the 4-amino-3-substituted-butanoic acid derivative wherein the substituent at the 3-position thereof has a bulky structure, the dehydration reaction could easily be brought about between the amino group and the carboxyl group within the molecule.

Series [2] in a line: Stability of baclofen granular powders (wet admixture), dehydrated condensate content by HPLC (Example 11). Format: physicochemical. To be noted: solid. The protocol:
In this Example and the following Example, a content of the dehydrated condensate thus formed is expressed in terms of % by weight, based on baclofen.
In this Example, the stabilization of baclofen according to the wet admixture with the amino acid was tested for the following Samples (ag) and (ah) of baclofen.
1) Sample (ag) was prepared by wetting 200 mg of baclofen crystals with 0.1 mL of water, forming granular powders by means of a mortar and then drying.
2) Sample (ah) was prepared by wetting 200 mg of baclofen crystals with 0.1 mL of a 2% aqueous solution of L-isoleucine, forming granular powders by means of a mortar and then drying. • Samples (ag) and (ah) prepared as described above and untreated baclofen crystals were stored under the conditions as defined in the following Table 13 and then a content of the dehydrated condensate formed in each of the samples was determined by means of HPLC.

A short description of series [3]: Stability of compacted pregabalin powders, dehydrated condensate content by HPLC (Example 9). Format: physicochemical. The note with it: solid. On the procedure:
3) Sample (v) was prepared by dissolving 1 g of pregabalin crystals and 1.47 g of L-valine in water to make up a total volume of 50 mL. • Samples (t), (u) and (v) prepared as described above were stored under the conditions as defined in the following Table 10 and then a content of the dehydrated condensate formed in each of the aqueous solutions was determined by means of HPLC. In this Example and the following Examples, a content of the dehydrated condensate formed is expressed in terms of % by weight, based on pregabalin.
This Example will illustrate the preparation of a stabilized solid pharmaceutical preparation of pregabalin by the addition of the amino acid to pregabalin according to the dry admixture.
1) 1 g of pregabalin crystals was prepared to powdery Sample (aa) in a compacted state by means of a mortar.
2) 1 g of pregabalin crystals was blended with 10 mg of magnesium stearate by means of a mortar to prepare mixed powdery Sample (ab) in a compacted state.
3) 1 g of pregabalin crystals was blended with 30 mg of talc by means of a mortar to prepare mixed powdery Sample (ac) in a compacted state.
4) 1 g of pregabalin crystals was blended with 30 mg of L-leucine by means of a mortar to prepare mixed powdery Sample (ad) in a compacted state. • Samples (aa), (ab), (ac) and (ad) prepared as described above and untreated pregabalin crystals were stored under the conditions as defined in the following Table 11 and then a content of the dehydrated condensate formed in each of the samples was determined by means of HPLC.

Series [4] can be described thus: Stabilizing effect of amino acids on 4-amino-3-substituted-butanoic acid derivatives.

`NCC(O)CC(=O)O` (stereo not shown) [4-amino-3-hydroxy-butanoic acid]: the “dehydration reaction (formation of the corresponding lactam form)” value in series [1] is “not brought about”.
In the case of `NCC(CC(=O)O)c1ccc(Cl)cc1` (stereo not shown) [Untreated Baclofen], the “content of the dehydrated condensate” value in series [2] (60° C./1 week (sealed)) is on record as 0.36 % by weight, based on baclofen; in series [2] (60° C./2 weeks (sealed)), 0.57 % by weight, based on baclofen; in series [2] (60° C./3 weeks (sealed)) it was 0.70 % by weight, based on baclofen; in series [2] (When initiated), 0.10 % by weight, based on baclofen.
Take `CC(C)CC(CN)CC(=O)O` (stereo not shown) [Untreated Pregabalin, 5-methyl-3-aminomethyl-hexanoic acid]: the “content of the dehydrated condensate” value is listed as 0.001 % by weight, based on pregabalin in series [3] (60° C./2 weeks (sealed)); 0.006 % by weight, based on pregabalin in series [3] (80° C./1 week (sealed)); <0.001 % by weight, based on pregabalin in series [3] (When initiated).
Consider `O=C(O)[C@@H]1C[C@@H](O)CN1` [hydroxyproline], for which the “stabilizing effect as stabilizer for a 4-amino-3-substituted-butanoic acid derivative” value in series [4] is on record as “weak stabilizing effect”.
In the case of `NCCCC(=O)O` [γ-aminobutyric acid], in series [1], the “dehydration reaction (formation of the corresponding lactam form)” value was “not brought about”.

Values taken from US7309719B1, “Stabilized pharmaceutical preparation of gamma-aminobutyric acid derivatives and process for preparing the same” (Warner Lambert Company, LLC, priority 1998, dated 2007).
